Data as given in publication PMC4823954, “From fighting depression to conquering tumors: a novel tricyclic thiazepine compound as a tubulin polymerization inhibitor” (Cell Death & Disease, 2016).
Where “and” joins values, the source holds several entries; their conditions need not be identical. Equal entries are not always repeated.

How the values were obtained:
RET(M918T) = biological target: T1, RET(M918T) (Homo sapiens, UniProt P07949, M918T); test: KINOMEscan; format: binding; settings: read-out: % Ctrl
T1 construct: purchased DiscoveRx KINOMEscan

[1] = toxicity in xenografted mice; settings: TBPT 30 or 60 mg/kg x5, PTX 10 mg/kg x4, i.v.
Method: Five injections of vehicle and TBPT (30 or 60 mg/kg) were administered intravenously at days 1, 3, 5, 7 and 9 (arrows). Four injections of PTX (10 mg/kg) were administered intravenously at days 1, 3, 5 and 7. (a) The tumor volume was measured every other day. When the tumor volume in the solvent-treated group exceeded 1500 mm^3, the experiment was terminated. (b) Blood biochemical and hematological analyses. (c) The body weights of the mice were monitored every other day during the experiments. *P<0.05, Student's t-test with day 0, N=5
Figure 3 Histopathological examination of the major organs from TBPT or PTX-treated mouse tumor at the end of the experiments. The cross-sections of organs were stained with hematoxylin–eosin. […] The scale bars represent 50 μm and are uniform in each column
H460 and H460TaxR cells (5 × 10^6 cells in 100 μl PBS) were injected subcutaneously into the dorsal flank of each mouse. When the tumors reached volumes of 100 mm^3, the mice were divided randomly into four groups. The mice were treated every other day five times with intravenous injections of (1) vehicle (the solvent of TBPT: 60% PBS, 8% Cremophor EL, 8% EtOH, 12% poly propylene glycol and 12% PEG-400), (2) TBPT (30 mg/kg) or (3) TBPT (60 mg/kg). Another group was treated with PTX (10 mg/kg) every other day four times as the positive control. The tumor dimensions and body weights were measured every other day. The tumor volume was calculated according to a standard formula: volume=width^2 × length/2. The experiment was terminated and the mice were killed when the tumor volumes in the solvent-treated group exceeded 1500 mm^3. The mouse organs and blood were collected and used for hematoxylin–eosin staining and serum chemistry assay. TGI rates were assessed using the following formula: TGI=1− (Tt−T0)/(Ct−C0) × 100%. Tt and T0 indicate the tumor volumes of the treated group at days t and 0. Ct and C0 indicate the tumor volumes of the control group at days t and 0, respectively.

[2] = biological target: T2, ABL1(E255K)-phosphorylated (Homo sapiens, UniProt P00519, E255K); test: KINOMEscan; format: binding; settings: read-out: % Ctrl
T2 construct: purchased DiscoveRx KINOMEscan

FER = biological target: T3, FER (Homo sapiens, UniProt P16591); test: KINOMEscan; format: binding; settings: read-out: % Ctrl
T3 construct: purchased DiscoveRx KINOMEscan
T3 sequence (P16591 whole entry): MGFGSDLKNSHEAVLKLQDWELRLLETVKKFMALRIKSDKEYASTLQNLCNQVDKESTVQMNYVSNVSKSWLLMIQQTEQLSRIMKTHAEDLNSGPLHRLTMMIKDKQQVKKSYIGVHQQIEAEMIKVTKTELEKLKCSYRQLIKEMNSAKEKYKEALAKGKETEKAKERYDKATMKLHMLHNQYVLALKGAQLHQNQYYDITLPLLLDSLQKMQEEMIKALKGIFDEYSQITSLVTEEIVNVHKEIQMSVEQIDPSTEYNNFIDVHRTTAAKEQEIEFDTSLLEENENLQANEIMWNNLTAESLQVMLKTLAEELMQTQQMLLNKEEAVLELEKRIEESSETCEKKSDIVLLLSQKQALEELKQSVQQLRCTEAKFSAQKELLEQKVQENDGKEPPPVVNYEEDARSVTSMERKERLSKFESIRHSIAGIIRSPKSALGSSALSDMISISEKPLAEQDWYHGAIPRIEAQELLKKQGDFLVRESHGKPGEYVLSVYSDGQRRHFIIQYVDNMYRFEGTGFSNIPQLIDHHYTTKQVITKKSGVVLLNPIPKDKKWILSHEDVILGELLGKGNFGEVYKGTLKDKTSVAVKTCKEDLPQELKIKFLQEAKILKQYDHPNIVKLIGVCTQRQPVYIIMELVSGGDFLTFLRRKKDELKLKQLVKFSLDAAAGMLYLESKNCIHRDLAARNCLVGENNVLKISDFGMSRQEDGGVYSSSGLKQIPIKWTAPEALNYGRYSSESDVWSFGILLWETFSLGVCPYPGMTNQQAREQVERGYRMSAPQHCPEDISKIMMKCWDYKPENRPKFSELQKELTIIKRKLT
Procedure, shortened: (§1)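 Competition binding panel of 442 non-mutant kinases: test compound at 5 and 10 μM competed with an active-site-directed ligand for 1 h with shaking. Bound kinase was eluted with 0.5 μM ligand and quantified by qPCR; %Ctrl = (compound − positive control)/(DMSO − positive control) × 100, lower meaning tighter binding.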

TNK2 = biological target: T4, TNK2 (Homo sapiens, UniProt Q07912); test: KINOMEscan; format: binding; settings: read-out: % Ctrl
T4 construct: purchased DiscoveRx KINOMEscan
Procedure, shortened: as §1

RIPK4 = biological target: T5, RIPK4 (Homo sapiens, UniProt P57078); test: KINOMEscan; format: binding; settings: read-out: % Ctrl
T5 construct: purchased DiscoveRx KINOMEscan
Procedure, shortened: as §1

MAP4K4 = biological target: T6, MAP4K4 (Homo sapiens, UniProt O95819); test: KINOMEscan; format: binding; settings: read-out: % Ctrl
T6 construct: purchased DiscoveRx KINOMEscan
Procedure, shortened: as §1

RAF1 = biological target: T7, RAF1 (Homo sapiens, UniProt P04049); test: KINOMEscan; format: binding; settings: read-out: % Ctrl
T7 construct: purchased DiscoveRx KINOMEscan
Procedure, shortened: as §1

PRKCD = biological target: T8, PRKCD (Homo sapiens, UniProt Q05655); test: KINOMEscan; format: binding; settings: read-out: % Ctrl
T8 construct: purchased DiscoveRx KINOMEscan
T8 sequence (Q05655 whole entry): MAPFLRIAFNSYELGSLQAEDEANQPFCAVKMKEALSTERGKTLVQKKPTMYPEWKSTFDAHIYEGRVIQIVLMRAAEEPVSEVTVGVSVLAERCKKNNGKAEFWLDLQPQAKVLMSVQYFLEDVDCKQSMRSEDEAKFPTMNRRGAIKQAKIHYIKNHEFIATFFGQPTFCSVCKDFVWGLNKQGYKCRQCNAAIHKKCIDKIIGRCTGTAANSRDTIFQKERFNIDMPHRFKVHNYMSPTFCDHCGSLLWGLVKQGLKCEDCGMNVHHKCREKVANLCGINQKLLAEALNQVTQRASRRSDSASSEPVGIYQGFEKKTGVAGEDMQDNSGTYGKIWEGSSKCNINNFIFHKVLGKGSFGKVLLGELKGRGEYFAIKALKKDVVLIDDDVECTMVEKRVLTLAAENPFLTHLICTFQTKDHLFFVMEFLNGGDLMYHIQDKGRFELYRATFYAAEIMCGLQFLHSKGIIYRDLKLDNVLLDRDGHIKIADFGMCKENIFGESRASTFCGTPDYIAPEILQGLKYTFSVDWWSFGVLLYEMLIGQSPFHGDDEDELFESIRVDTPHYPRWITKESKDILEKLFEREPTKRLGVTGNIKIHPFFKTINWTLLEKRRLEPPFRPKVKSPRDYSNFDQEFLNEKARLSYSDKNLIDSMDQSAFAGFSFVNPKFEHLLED
Procedure, shortened: as §1

DYRK1B = biological target: T9, DYRK1B (Homo sapiens, UniProt Q9Y463); test: KINOMEscan; format: binding; settings: read-out: % Ctrl
T9 construct: purchased DiscoveRx KINOMEscan
T9 sequence (Q9Y463 whole entry): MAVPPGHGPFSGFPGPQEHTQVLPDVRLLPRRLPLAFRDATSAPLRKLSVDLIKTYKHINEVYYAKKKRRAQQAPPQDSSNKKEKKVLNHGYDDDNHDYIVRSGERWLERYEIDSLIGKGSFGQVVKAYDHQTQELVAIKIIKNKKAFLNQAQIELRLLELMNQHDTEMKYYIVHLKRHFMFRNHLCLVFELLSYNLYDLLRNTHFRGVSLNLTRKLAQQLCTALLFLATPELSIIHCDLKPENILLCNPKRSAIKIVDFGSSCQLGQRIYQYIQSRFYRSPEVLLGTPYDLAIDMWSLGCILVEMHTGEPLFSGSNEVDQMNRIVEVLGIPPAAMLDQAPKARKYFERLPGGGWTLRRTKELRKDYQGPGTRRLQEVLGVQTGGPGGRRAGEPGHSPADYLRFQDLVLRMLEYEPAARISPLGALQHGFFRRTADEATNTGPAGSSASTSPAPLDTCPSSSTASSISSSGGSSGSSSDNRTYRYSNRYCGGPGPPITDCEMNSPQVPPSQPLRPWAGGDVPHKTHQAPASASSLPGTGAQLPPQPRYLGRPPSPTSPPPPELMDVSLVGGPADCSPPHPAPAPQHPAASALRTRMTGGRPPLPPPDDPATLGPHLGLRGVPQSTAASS
Procedure, shortened: as §1

MAPKAPK5 = biological target: T10, MAPKAPK5 (Homo sapiens, UniProt Q8IW41); test: KINOMEscan; format: binding; settings: read-out: % Ctrl
T10 construct: purchased DiscoveRx KINOMEscan
Procedure, shortened: as §1

PAK6 = biological target: T11, PAK6 (Homo sapiens, UniProt Q9NQU5); test: KINOMEscan; format: binding; settings: read-out: % Ctrl
T11 construct: purchased DiscoveRx KINOMEscan
T11 sequence (Q9NQU5 whole entry): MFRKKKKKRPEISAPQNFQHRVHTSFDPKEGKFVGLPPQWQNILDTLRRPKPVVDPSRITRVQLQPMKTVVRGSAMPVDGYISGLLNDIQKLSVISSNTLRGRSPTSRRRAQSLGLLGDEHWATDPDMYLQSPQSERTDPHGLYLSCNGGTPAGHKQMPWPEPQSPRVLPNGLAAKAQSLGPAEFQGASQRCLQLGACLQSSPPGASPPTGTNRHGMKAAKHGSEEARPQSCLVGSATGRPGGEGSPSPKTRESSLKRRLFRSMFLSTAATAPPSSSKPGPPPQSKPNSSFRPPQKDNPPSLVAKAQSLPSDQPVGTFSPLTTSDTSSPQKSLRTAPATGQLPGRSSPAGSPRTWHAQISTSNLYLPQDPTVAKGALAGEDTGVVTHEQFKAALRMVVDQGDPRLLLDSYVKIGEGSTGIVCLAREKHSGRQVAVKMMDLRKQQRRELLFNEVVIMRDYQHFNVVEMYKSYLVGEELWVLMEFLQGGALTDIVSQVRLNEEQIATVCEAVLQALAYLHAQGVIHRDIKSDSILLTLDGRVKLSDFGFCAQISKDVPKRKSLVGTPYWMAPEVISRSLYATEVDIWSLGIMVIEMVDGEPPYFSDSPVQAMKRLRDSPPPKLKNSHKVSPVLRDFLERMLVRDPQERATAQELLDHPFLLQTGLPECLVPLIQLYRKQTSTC
Procedure, shortened: as §1

PCTK2 = biological target: T12, PCTK2 (Homo sapiens, UniProt Q00537); test: KINOMEscan; format: binding; settings: read-out: % Ctrl
T12 construct: purchased DiscoveRx KINOMEscan
Procedure, shortened: as §1

CDC2L5 = biological target: T13, CDC2L5 (Homo sapiens, UniProt Q14004); test: KINOMEscan; format: binding; settings: read-out: % Ctrl
T13 construct: purchased DiscoveRx KINOMEscan
Procedure, shortened: as §1

BMPR1B = biological target: T14, BMPR1B (Homo sapiens, UniProt O00238); test: KINOMEscan; format: binding; settings: read-out: % Ctrl
T14 construct: purchased DiscoveRx KINOMEscan
Procedure, shortened: as §1

[3] = biological target: T15, ABL1(T315I)-nonphosphorylated (Homo sapiens, UniProt P00519, T315I); test: KINOMEscan; format: binding; settings: read-out: % Ctrl
T15 construct: purchased DiscoveRx KINOMEscan

DDR2 = biological target: T16, DDR2 (Homo sapiens, UniProt Q16832); test: KINOMEscan; format: binding; settings: read-out: % Ctrl
T16 construct: purchased DiscoveRx KINOMEscan
T16 sequence (Q16832 22-855): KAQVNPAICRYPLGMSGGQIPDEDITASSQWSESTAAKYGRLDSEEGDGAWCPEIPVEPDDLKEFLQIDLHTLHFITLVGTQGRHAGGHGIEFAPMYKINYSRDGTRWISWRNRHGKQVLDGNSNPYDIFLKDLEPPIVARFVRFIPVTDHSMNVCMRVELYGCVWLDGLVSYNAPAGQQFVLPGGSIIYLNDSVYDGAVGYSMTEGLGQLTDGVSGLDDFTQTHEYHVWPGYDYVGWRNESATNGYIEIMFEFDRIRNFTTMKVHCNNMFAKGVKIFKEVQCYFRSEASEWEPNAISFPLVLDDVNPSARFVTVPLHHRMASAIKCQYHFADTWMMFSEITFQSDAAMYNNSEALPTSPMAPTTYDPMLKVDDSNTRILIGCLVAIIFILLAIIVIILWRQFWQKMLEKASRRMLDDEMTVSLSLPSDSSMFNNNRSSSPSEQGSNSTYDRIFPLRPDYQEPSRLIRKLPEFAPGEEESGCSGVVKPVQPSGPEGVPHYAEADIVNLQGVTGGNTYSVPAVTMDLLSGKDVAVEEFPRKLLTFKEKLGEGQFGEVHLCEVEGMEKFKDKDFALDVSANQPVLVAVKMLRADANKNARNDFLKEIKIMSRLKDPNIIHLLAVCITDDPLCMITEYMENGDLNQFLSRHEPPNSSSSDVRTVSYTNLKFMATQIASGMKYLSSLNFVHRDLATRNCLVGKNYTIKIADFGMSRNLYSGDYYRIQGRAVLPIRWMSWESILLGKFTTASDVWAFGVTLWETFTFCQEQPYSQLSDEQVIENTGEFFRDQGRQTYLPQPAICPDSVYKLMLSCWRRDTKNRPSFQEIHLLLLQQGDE
Procedure, shortened: as §1

NEK6 = biological target: T17, NEK6 (Homo sapiens, UniProt Q9HC98); test: KINOMEscan; format: binding; settings: read-out: % Ctrl
T17 construct: purchased DiscoveRx KINOMEscan
T17 sequence (Q9HC98 whole entry): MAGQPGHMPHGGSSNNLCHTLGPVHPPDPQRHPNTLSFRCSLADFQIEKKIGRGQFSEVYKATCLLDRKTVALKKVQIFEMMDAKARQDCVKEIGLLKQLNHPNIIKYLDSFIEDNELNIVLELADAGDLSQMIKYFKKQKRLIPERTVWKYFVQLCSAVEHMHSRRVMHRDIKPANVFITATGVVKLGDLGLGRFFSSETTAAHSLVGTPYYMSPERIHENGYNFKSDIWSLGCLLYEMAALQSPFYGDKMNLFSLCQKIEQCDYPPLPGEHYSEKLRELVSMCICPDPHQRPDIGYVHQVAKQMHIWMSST
Procedure, shortened: as §1

caspases 8, 9 and 3/7 = test: Caspases activity assay in H460TaxR cells; format: cell-based, human; settings: 2 μM, 6, 12 and 24 h
Method: The activities of caspases 8, 9, and 3/7 in H460TaxR and H460 cells were examined via a fluorescence-based assay using Caspase-Glo 8, Caspase-Glo 9 Assay kits and Apo-ONE Homogeneous Caspase-3/7 Assay Kit (Promega, Madison, WI, USA). Cells (1 × 10^6 cells in 10 ml medium) were seeded in 10-cm dishes. After 24 h, the cells were treated with TBPT (2 μM) or DMSO for 6, 12 and 24 h. Then, the cells were washed in PBS and collected. Cell lysates were prepared conventionally in RIPA lysis buffer. Protein concentrations were determined using the BCA protein assay. Equal amounts (10 μg) of total protein of samples were added to 96-well culture plates containing 100 μl caspases 8, 9 and 3/7 activity working solution. After the samples were incubated for 1 h at RT, the fluorescence of each well was determined at 499 nm with an emission wavelength of 521 nm using a multimode plate reader (Victor X2, Perkin Elmer, Boston, MA, USA). The fluorescence intensities are proportional to the activities of caspases 8, 9 and 3/7.

NHFB cells = test: Cell cycle and apoptosis analysis; format: cell-based, human; settings: 2 μM
FGFR3(G697C) = biological target: T18, FGFR3(G697C) (Homo sapiens, UniProt P22607, G697C); test: KINOMEscan; format: binding; settings: read-out: % Ctrl
T18 construct: purchased DiscoveRx KINOMEscan
T18 sequence (P22607 23-806 G697C): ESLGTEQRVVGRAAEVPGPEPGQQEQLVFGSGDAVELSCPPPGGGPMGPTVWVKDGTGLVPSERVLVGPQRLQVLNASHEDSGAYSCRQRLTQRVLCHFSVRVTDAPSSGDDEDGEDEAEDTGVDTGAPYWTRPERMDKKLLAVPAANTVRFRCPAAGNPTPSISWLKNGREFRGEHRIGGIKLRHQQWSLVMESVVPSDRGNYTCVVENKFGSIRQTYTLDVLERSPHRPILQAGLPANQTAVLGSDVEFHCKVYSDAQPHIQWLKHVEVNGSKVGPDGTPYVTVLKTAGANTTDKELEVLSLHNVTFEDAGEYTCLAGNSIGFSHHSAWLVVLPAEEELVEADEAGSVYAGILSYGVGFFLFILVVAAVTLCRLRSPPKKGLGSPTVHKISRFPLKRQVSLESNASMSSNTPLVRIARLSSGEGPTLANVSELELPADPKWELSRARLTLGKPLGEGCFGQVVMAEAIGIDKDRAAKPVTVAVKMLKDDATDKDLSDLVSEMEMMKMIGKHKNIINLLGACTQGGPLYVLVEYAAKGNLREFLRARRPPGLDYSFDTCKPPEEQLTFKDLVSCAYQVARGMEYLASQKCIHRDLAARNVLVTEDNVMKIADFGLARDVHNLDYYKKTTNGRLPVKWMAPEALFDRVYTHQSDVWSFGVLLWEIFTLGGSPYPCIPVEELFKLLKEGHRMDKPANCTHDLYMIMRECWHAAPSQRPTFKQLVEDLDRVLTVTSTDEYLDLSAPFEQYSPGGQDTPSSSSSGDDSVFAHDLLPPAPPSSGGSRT

H460 = test: Apoptosis flow cytometry (PI/Annexin V-FITC); format: cell-based, human; settings: NSCLC cells (H460), 2 μM, 48 h
EGFR(T790M) = biological target: T19, EGFR(T790M) (Homo sapiens, UniProt P00533, T790M); test: KINOMEscan; format: binding; settings: read-out: % Ctrl
T19 construct: purchased DiscoveRx KINOMEscan

H460TaxR xenograft = test: NSCLC xenograft tumor growth inhibition; format: in vivo; settings: H460TaxR xenografted mice; TBPT 60 mg/kg i.v., five injections every other day
Method: (§2) (a) The tumor volume was measured every other day. […] (b) Blood biochemical and hematological analyses.

H460 xenograft = test: NSCLC xenograft tumor growth inhibition; format: in vivo; settings: H460 xenografted mice; TBPT 60 mg/kg i.v., five injections every other day
Method: as §2

Cc1ccc(C2=Nc3cccnc3S(=O)(=O)c3ccccc32)cc1 [TBPT, 6-(p-tolyl)benzo[f] pyrido[2,3-b][1,4] thiazepine 11,11-dioxide]
remaining binding at 5 µM (RET(M918T); 5 μM): 99%
remaining binding at 10 µM (RET(M918T); 10 μM): 99%
toxicity to normal tissues (blood biochemical and hematological analyses, body weight, relative organ weights) [1]: did not exhibit evident toxicity to normal tissues
remaining binding at 5 µM ([2]; 5 μM): 60%
remaining binding at 10 µM ([2]; 10 μM): 89%
remaining binding at 5 µM (FER; 5 μM): 93%
remaining binding at 10 µM (FER; 10 μM): 100%
remaining binding at 5 µM (TNK2; 5 μM): 100%
remaining binding at 10 µM (TNK2; 10 μM): 100%
remaining binding at 5 µM (RIPK4; 5 μM): 100%
remaining binding at 10 µM (RIPK4; 10 μM): 100%
remaining binding at 5 µM (MAP4K4; 5 μM): 94%
remaining binding at 10 µM (MAP4K4; 10 μM): 63%
remaining binding at 5 µM (RAF1; 5 μM): 100%
remaining binding at 10 µM (RAF1; 10 μM): 91%
remaining binding at 5 µM (PRKCD; 5 μM): 72%
remaining binding at 10 µM (PRKCD; 10 μM): 100%
remaining binding at 5 µM (DYRK1B; 5 μM): 99%
remaining binding at 10 µM (DYRK1B; 10 μM): 100%
remaining binding at 5 µM (MAPKAPK5; 5 μM): 100%
remaining binding at 10 µM (MAPKAPK5; 10 μM): 88%
remaining binding at 5 µM (PAK6; 5 μM): 100%
remaining binding at 10 µM (PAK6; 10 μM): 100%
remaining binding at 5 µM (PCTK2; 5 μM): 100%
remaining binding at 10 µM (PCTK2; 10 μM): 89%
remaining binding at 5 µM (CDC2L5; 5 μM): 100%
remaining binding at 10 µM (CDC2L5; 10 μM): 97%
remaining binding at 5 µM (BMPR1B; 5 μM): 95%
remaining binding at 10 µM (BMPR1B; 10 μM): 88%
remaining binding at 5 µM ([3]; 5 μM): 100%
remaining binding at 10 µM ([3]; 10 μM): 100%
remaining binding at 5 µM (DDR2; 5 μM): 100%
remaining binding at 10 µM (DDR2; 10 μM): 99%
remaining binding at 5 µM (NEK6; 5 μM): 96%
remaining binding at 10 µM (NEK6; 10 μM): 95%
activities of caspases 8, 9 and 3/7 (caspases 8, 9 and 3/7): activated caspases 8, 9 and 3/7 in a time-dependent manner
cell cycle arrest or apoptosis (NHFB cells): very little cell cycle arrest or apoptosis
remaining binding at 5 µM (FGFR3(G697C); 5 μM): 100%
remaining binding at 10 µM (FGFR3(G697C); 10 μM): 82%
cells in an apoptotic/necrotic state (H460): approximately 50%
remaining binding at 5 µM (EGFR(T790M); 5 μM): 100%
remaining binding at 10 µM (EGFR(T790M); 10 μM): 96%
tumor growth inhibition, TGI (H460TaxR xenograft): 66.7% and > 60%
tumor growth inhibition, TGI (H460 xenograft): 62.9% and > 60%
